Tests used:
Format in all cases: functional
SNB-75 = assay: Growth inhibition of human SNB75 cells at 10^-5 M incubated for 48 hrs by sulforhodamine B assay; details: SNB-75, 48 h, read-out: GI
SW-620 = assay: Growth inhibition of human SW620 cells at 10^-5 M incubated for 48 hrs by sulforhodamine B assay; details: SW-620, 48 h, read-out: GI
SK-OV-3 = assay: Growth inhibition of human SKOV3 cells at 10^-5 M incubated for 48 hrs by sulforhodamine B assay; details: SK-OV-3, 48 h, read-out: GI
OVCAR-8 = assay: Growth inhibition of human OVCAR8 cells at 10^-5 M incubated for 48 hrs by sulforhodamine B assay; details: OVCAR-8, 48 h, read-out: GI
NCI-H226 = assay: Growth inhibition of human NCI-H226 cells at 10^-5 M incubated for 48 hrs by sulforhodamine B assay; details: NCI-H226, 48 h, read-out: GI
M14 = assay: Growth inhibition of human M14 cells at 10^-5 M incubated for 48 hrs by sulforhodamine B assay; details: M14, 48 h, read-out: GI
TK-10 = assay: Growth inhibition of human TK10 cells at 10^-5 M incubated for 48 hrs by sulforhodamine B assay; details: TK-10, 48 h, read-out: GI
KM12 = assay: Growth inhibition of human KM12 cells at 10^-5 M incubated for 48 hrs by sulforhodamine B assay; details: KM12, 48 h, read-out: GI
COLO 205 = assay: Growth inhibition of human COLO205 cells at 10^-5 M incubated for 48 hrs by sulforhodamine B assay; details: COLO 205, 48 h, read-out: GI
HCT-116 = assay: Growth inhibition of human HCT116 cells at 10^-5 M incubated for 48 hrs by sulforhodamine B assay; details: HCT-116, 48 h, read-out: GI
MDA-MB-435 = assay: Growth inhibition of human MDA-MB-435 cells at 10^-5 M incubated for 48 hrs by sulforhodamine B assay; details: MDA-MB-435, 48 h, read-out: GI
LOX IMVI = assay: Growth inhibition of human LOXIMVI cells at 10^-5 M incubated for 48 hrs by sulforhodamine B assay; details: read-out: GI
UACC-257 = assay: Growth inhibition of human UACC257 cells at 10^-5 M incubated for 48 hrs by sulforhodamine B assay; details: UACC-257, 48 h, read-out: GI
T47D = assay: Growth inhibition of human T47D cells at 10^-5 M incubated for 48 hrs by sulforhodamine B assay; details: read-out: GI
Hs-578T = assay: Growth inhibition of human Hs 578T cells at 10^-5 M incubated for 48 hrs by sulforhodamine B assay; details: read-out: GI
HOP-92 = assay: Growth inhibition of human HOP92 cells at 10^-5 M incubated for 48 hrs by sulforhodamine B assay; details: HOP-92, 48 h, read-out: GI
HL-60(TB) = assay: Growth inhibition of human HL-60(TB) cells at 10^-5 M incubated for 48 hrs by sulforhodamine B assay; details: HL-60, 48 h, read-out: GI
HCC 2998 = assay: Growth inhibition of human HCC2998 cells at 10^-5 M incubated for 48 hrs by sulforhodamine B assay; details: HCC 2998, 48 h, read-out: GI
CAKI-1 = assay: Growth inhibition of human Caki1 cells at 10^-5 M incubated for 48 hrs by sulforhodamine B assay; details: CAKI-1, 48 h, read-out: GI
MOLT-4 = assay: Growth inhibition of human MOLT4 cells at 10^-5 M incubated for 48 hrs by sulforhodamine B assay; details: MOLT-4, 48 h, read-out: GI
UACC-62 = assay: Growth inhibition of human UACC62 cells at 10^-5 M incubated for 48 hrs by sulforhodamine B assay; details: UACC-62, 48 h, read-out: GI
RXF 393 = assay: Growth inhibition of human RXF393 cells at 10^-5 M incubated for 48 hrs by sulforhodamine B assay; details: RXF 393, 48 h, read-out: GI
OVCAR-5 = assay: Growth inhibition of human OVCAR5 cells at 10^-5 M incubated for 48 hrs by sulforhodamine B assay; details: OVCAR-5, 48 h, read-out: GI
U-251 = assay: Growth inhibition of human U251 cells at 10^-5 M incubated for 48 hrs by sulforhodamine B assay; details: U-251, 48 h, read-out: GI
MDA-MB-231 = assay: Growth inhibition of human MDA-MB-231 cells at 10^-5 M incubated for 48 hrs by sulforhodamine B assay; details: MDA-MB-231, 48 h, read-out: GI
HOP-62 = assay: Growth inhibition of human HOP62 cells at 10^-5 M incubated for 48 hrs by sulforhodamine B assay; details: HOP-62, 48 h, read-out: GI
HCT-15 = assay: Growth inhibition of human HCT15 cells at 10^-5 M incubated for 48 hrs by sulforhodamine B assay; details: HCT-15, 48 h, read-out: GI
SF-539 = assay: Growth inhibition of human SF539 cells at 10^-5 M incubated for 48 hrs by sulforhodamine B assay; details: SF-539, 48 h, read-out: GI
DU-145 = assay: Growth inhibition of human DU145 cells at 10^-5 M incubated for 48 hrs by sulforhodamine B assay; details: DU-145, 48 h, read-out: GI
SK-MEL-5 = assay: Growth inhibition of human SK-MEL-5 cells at 10^-5 M incubated for 48 hrs by sulforhodamine B assay; details: SK-MEL-5, 48 h, read-out: GI
SF-295 = assay: Growth inhibition of human SF295 cells at 10^-5 M incubated for 48 hrs by sulforhodamine B assay; details: SF-295, 48 h, read-out: GI
SK-MEL-28 = assay: Growth inhibition of human SK-MEL-28 cells at 10^-5 M incubated for 48 hrs by sulforhodamine B assay; details: SK-MEL-28, 48 h, read-out: GI
IGROV-1 = assay: Growth inhibition of human IGROV1 cells at 10^-5 M incubated for 48 hrs by sulforhodamine B assay; details: IGROV-1, 48 h, read-out: GI
EKVX = assay: Growth inhibition of human EKVX cells at 10^-5 M incubated for 48 hrs by sulforhodamine B assay; details: read-out: GI
SR = assay: Growth inhibition of human SR cells at 10^-5 M incubated for 48 hrs by sulforhodamine B assay; details: read-out: GI
NCI-H460 = assay: Growth inhibition of human NCI-H460 cells at 10^-5 M incubated for 48 hrs by sulforhodamine B assay; details: NCI-H460, 48 h, read-out: GI
786-0 = assay: Growth inhibition of human 786-0 cells at 10^-5 M incubated for 48 hrs by sulforhodamine B assay; details: 786-0, 48 h, read-out: GI
A549 = assay: Growth inhibition of human A549/ATCC cells at 10^-5 M incubated for 48 hrs by sulforhodamine B assay; details: A549, 48 h, read-out: GI

Structure (SMILES)	inhibition of growth at 10 µM (SNB-75)	inhibition of growth at 10 µM (SW-620)	inhibition of growth at 10 µM (SK-OV-3)	inhibition of growth at 10 µM (OVCAR-8)	inhibition of growth at 10 µM (NCI-H226)	inhibition of growth at 10 µM (M14)	inhibition of growth at 10 µM (TK-10)	inhibition of growth at 10 µM (KM12)	inhibition of growth at 10 µM (COLO 205)	inhibition of growth at 10 µM (HCT-116)	inhibition of growth at 10 µM (MDA-MB-435)	inhibition of growth at 10 µM (LOX IMVI)	inhibition of growth at 10 µM (UACC-257)	inhibition of growth at 10 µM (T47D)	inhibition of growth at 10 µM (Hs-578T)	inhibition of growth at 10 µM (HOP-92)	inhibition of growth at 10 µM (HL-60(TB))	inhibition of growth at 10 µM (HCC 2998)	inhibition of growth at 10 µM (CAKI-1)	inhibition of growth at 10 µM (MOLT-4)	further results
O=C1Nc2c(sc3ccc(Cl)cc23)C(c2ccc3ccccc3c2)N1 (stereo unspecified)	21.5%	1.75%	16.8%	6.44%	7.25%	6.72%	15.4%	-4.05%	-6.54%	-4.42%	-8.72%	-0.62%	14.5%	24.2%	3.46%	24.7%	5.39%	-14.6%	23.3%	12.9%	inhibition of growth at 10 µM (UACC-62): -1.09%; inhibition of growth at 10 µM (RXF 393): -10.1%; inhibition of growth at 10 µM (OVCAR-5): 8.06%; inhibition of growth at 10 µM (U-251): 1.75%; inhibition of growth at 10 µM (MDA-MB-231): 14.8%; inhibition of growth at 10 µM (HOP-62): 13.9%; inhibition of growth at 10 µM (HCT-15): 1.48%; inhibition of growth at 10 µM (SF-539): 3.67%; inhibition of growth at 10 µM (DU-145): -6.96%; inhibition of growth at 10 µM (SK-MEL-5): 1.82%; inhibition of growth at 10 µM (SF-295): 2.29%; inhibition of growth at 10 µM (SK-MEL-28): 3.5%; inhibition of growth at 10 µM (IGROV-1): 17.4%; inhibition of growth at 10 µM (EKVX): 16.5%; inhibition of growth at 10 µM (SR): 20.9%; inhibition of growth at 10 µM (NCI-H460): 2.77%; inhibition of growth at 10 µM (786-0): 6.06%; inhibition of growth at 10 µM (A549): 4.41%
Cc1cc(C)n(C2=Nc3c(sc4ccc(Cl)cc34)C(c3cccc([N+](=O)[O-])c3)N2)n1 (stereo unspecified)	7.66%	-3.97%	11.4%	0.5%	17.1%	-4.17%	-12.7%	2.61%	-5.86%	5.98%	-3.52%	0.51%	-4.2%	13.2%	0.17%	-4.25%	-2.76%	-5.86%	26.4%	16.5%	inhibition of growth at 10 µM (UACC-62): 9.64%; inhibition of growth at 10 µM (RXF 393): -9.71%; inhibition of growth at 10 µM (OVCAR-5): -4.21%; inhibition of growth at 10 µM (U-251): -3.95%; inhibition of growth at 10 µM (MDA-MB-231): 18.8%; inhibition of growth at 10 µM (HOP-62): 18.2%; inhibition of growth at 10 µM (HCT-15): -0.63%; inhibition of growth at 10 µM (SF-539): -0.76%; inhibition of growth at 10 µM (DU-145): -11.3%; inhibition of growth at 10 µM (SK-MEL-5): 4.68%; inhibition of growth at 10 µM (SF-295): 2.13%; inhibition of growth at 10 µM (SK-MEL-28): -16%; inhibition of growth at 10 µM (IGROV-1): 20.6%; inhibition of growth at 10 µM (EKVX): 24.2%; inhibition of growth at 10 µM (SR): -4.84%; inhibition of growth at 10 µM (NCI-H460): 7.9%; inhibition of growth at 10 µM (786-0): -6.44%; inhibition of growth at 10 µM (A549): 3.8%

Source: ChEMBL document CHEMBL4414672, “Synthesis of certain benzothieno[3,2-d]pyrimidine derivatives as a selective SIRT2 inhibitors” (Eur J Med Chem, 2020)
